Assay results as given in US20140113899A1 (priority 2011, published 2014).
Where two headings read alike, the source gives them in different places.

Columns and labels:
Fusarium graminearum [1] = type: in vivo; conditions: Furametpyr 20 g/ha alone
Pyricularia oryzae [2] = type: cell-based
Puccinia recondida = assay: Test Example 7: controlling effect of isopyrazam and Compound I-1 on wheat brown rust; type: in vivo; conditions: Isopyrazam 3.125 g/ha alone
Experimental: Isopyrazam and Compound I-1 were mixed at a given ratio and a test for a cooperative effect against wheat brown rust was carried out. First, a chemical suspension containing isopyrazam and Compound I-1 were prepared and sprayed on a pot of a wheat plant at two leaves stage so that thus sprayed isopyrazam and Compound I-1 became a predetermined dosage. Then, after the pot was left for approximately one hour at a room temperature so that the plant body dries, Puccinia recondida was inoculated by spraying an urediniospore suspended solution (1×10^5/ml) of Puccinia recondida. Then, the pot was kept in a wet chamber at 20° C. for 15 hours, and after 14 days, onset of disease was examined by a disease-onset area index. Here, the test was conducted by use of one plot pot.

Pythium aphanidermatum = assay: Test Example 19: in vitro antimicrobial activity test with metalaxyl and Compound I-1; type: cell-based
Fusarium graminearum [3] = type: in vivo
Microdocum nivale [4] = assay: Test Example 10: in vitro antimicrobial activity test with penthiopyrad and Compound I-1
Experimental: In the test, a flora disk of 4 mm in diameter was cut from an area around a colony of Microdocum nivale pre-cultured in advance in a pre-culture PDA medium, and Microdocum nivale was inoculated on the PDA medium where chemical agents were mixed. After culturing at 25° C. for 3 days, a diameter of a grown colony was measured. Then, a mycelial growth inhibition ratio was calculated by comparing the diameter of this grown colony with a diameter of a colony on a medium without the chemical agents. As in Test Example 1, a cooperative effect was judged by use of Colby's formula.
Then, a mycelial growth inhibition ratio against Microdocum nivale was obtained.

Gaeumannomyces graminis = assay: Test Example 13: in vitro antimicrobial activity test with prochloraz and Compound I-1; type: cell-based
Text: Then, a mycelial growth inhibition ratio against Gaeumannomyces graminis was obtained.

Microdocum nivale [5] = assay: Test Example 14: in vitro antimicrobial activity test with prothioconazole and Compound I-1
Fusarium graminearum [6] = type: in vivo; remark: listed apart in the source
Pyricularia oryzae [7] = type: cell-based; remark: listed apart in the source
[8] = tested on: Pseudocercoporella herpotrichoides; assay: Test Example 16: in vitro antimicrobial activity test with thiophanate-methyl and Compound I-1; type: cell-based

## Cc1nn(C)c(Cl)c1C(=O)Nc1cccc2c1C(C)OC2(C)C (centres unmarked) [Furametpyr]
Fusarium graminearum [1]
  Actual Protective Value: 0

## CC(C)C1CCC(Cc2ccc(Cl)cc2)C1(O)Cn1cncn1 (centres unmarked) [Ipconazole]
Pyricularia oryzae [2]; Ipconazole 0.0393 ppm alone
  Mycelial Growth Inhibition Ratio % Measured Value: 11%
Pyricularia oryzae [2]; Ipconazole 0.1575 ppm alone
  Mycelial Growth Inhibition Ratio % Measured Value: 33%
Pyricularia oryzae [2]; Ipconazole 0.63 ppm alone
  Mycelial Growth Inhibition Ratio % Measured Value: 72%

## CC(C)C1C2CCC1c1c(NC(=O)c3cn(C)nc3C(F)F)cccc12 (centres unmarked) [Isopyrazam]
Puccinia recondida
  Actual Protective Value: 57

## COCC(=O)N(c1c(C)cccc1C)C(C)C(=O)OC (centres unmarked) [Metalaxyl]
Pythium aphanidermatum; Metalaxyl 0.0393 ppm alone
  Mycelial Growth Inhibition Ratio % Measured Value: 3%
Pythium aphanidermatum; Metalaxyl 0.1575 ppm alone
  Mycelial Growth Inhibition Ratio % Measured Value: 7%
Pythium aphanidermatum; Metalaxyl 0.63 ppm alone
  Mycelial Growth Inhibition Ratio % Measured Value: 12%
Pythium aphanidermatum; Metalaxyl 2.5 ppm alone
  Mycelial Growth Inhibition Ratio % Measured Value: 14%
Pythium aphanidermatum; Metalaxyl 10 ppm alone
  Mycelial Growth Inhibition Ratio % Measured Value: 25%

## CC1(C)CCC(Cc2ccc(Cl)cc2)C1(O)Cn1cncn1 (centres unmarked) [Metconazole]
Fusarium graminearum [3]; Metconazole 10 g/ha alone
  Actual Protective Value: 13.9
Fusarium graminearum [3]; Metconazole 20 g/ha alone
  Actual Protective Value: 26.7

## CC(C)CC(C)c1sccc1NC(=O)c1cn(C)nc1C(F)(F)F (centres unmarked) [Penthiopyrad]
Microdocum nivale [4]; Penthiopyrad 0.0393 ppm alone
  Mycelial Growth Inhibition Ratio % Measured Value: 2%
Microdocum nivale [4]; Penthiopyrad 0.1575 ppm alone
  Mycelial Growth Inhibition Ratio % Measured Value: 2%
Microdocum nivale [4]; Penthiopyrad 0.63 ppm alone
  Mycelial Growth Inhibition Ratio % Measured Value: 2%
Microdocum nivale [4]; Penthiopyrad 2.5 ppm alone
  Mycelial Growth Inhibition Ratio % Measured Value: 7%
Microdocum nivale [4]; Penthiopyrad 10 ppm alone
  Mycelial Growth Inhibition Ratio % Measured Value: 36%

## CCCN(CCOc1c(Cl)cc(Cl)cc1Cl)C(=O)n1ccnc1 [Prochloraz]
Gaeumannomyces graminis; Prochloraz 0.0393 ppm alone
  Mycelial Growth Inhibition Ratio % Measured Value: 12%
Gaeumannomyces graminis; Prochloraz 0.1575 ppm alone
  Mycelial Growth Inhibition Ratio % Measured Value: 69%
Gaeumannomyces graminis; Prochloraz 0.63 ppm alone
  Mycelial Growth Inhibition Ratio % Measured Value: 98%

## OC(Cc1ccccc1Cl)(Cn1nc[nH]c1=S)C1(Cl)CC1 (centres unmarked) [Prothioconazole]
Microdocum nivale [5]; Prothioconazole 0.1575 ppm alone
  Mycelial Growth Inhibition Ratio % Measured Value: 11%
Microdocum nivale [5]; Prothioconazole 0.63 ppm alone
  Mycelial Growth Inhibition Ratio % Measured Value: 34%
Microdocum nivale [5]; Prothioconazole 2.5 ppm alone
  Mycelial Growth Inhibition Ratio % Measured Value: 76%

## COC(=O)N(OC)c1ccccc1COc1ccn(-c2ccc(Cl)cc2)n1 [Pyraclostrobin]
Fusarium graminearum [6]; Pyraclostrobin 10 g/ha alone
  Actual Protective Value: 10.6
Fusarium graminearum [6]; Pyraclostrobin 20 g/ha alone
  Actual Protective Value: 23.5
Fusarium graminearum [6]; Pyraclostrobin 30 g/ha alone
  Actual Protective Value: 36.5

## CC(C)(C)C(O)(CCc1ccc(Cl)cc1)Cn1cncn1 (centres unmarked) [Tebuconazole]
Pyricularia oryzae [7]; Tebuconazole 0.0393 ppm alone
  Mycelial Growth Inhibition Ratio % Measured Value: 3%
Pyricularia oryzae [7]; Tebuconazole 0.1575 ppm alone
  Mycelial Growth Inhibition Ratio % Measured Value: 12%
Pyricularia oryzae [7]; Tebuconazole 0.63 ppm alone
  Mycelial Growth Inhibition Ratio % Measured Value: 50%

## COC(=O)NC(=S)Nc1ccccc1NC(=S)NC(=O)OC [Thiophanate-methyl]
[8]; Thiophanate-methyl 0.0393 ppm alone
  Mycelial Growth Inhibition Ratio % Measured Value: 0%
[8]; Thiophanate-methyl 0.1575 ppm alone
  Mycelial Growth Inhibition Ratio % Measured Value: 0%
[8]; Thiophanate-methyl 0.63 ppm alone
  Mycelial Growth Inhibition Ratio % Measured Value: 52%
